What was measured:
[1] = biological target: soluble human BACE1 catalytic domain (Homo sapiens (Human), UniProt P56817); assay: BACE1 HTRF FRET Assay; assay type: biochemical; conditions: Ki calculated from IC50 using the Cheng-Prusoff equation; QSY7-APPswe-Eu substrate, pH 5.0
Source text: Reagents: Na^+-Acetate pH 5.0; 1% Brij-35; Glycerol; Dimethyl Sulfoxide (DMSO);
A homogeneous time-resolved FRET assay can be used to determine IC50 values for inhibitors of the soluble human BACE1 catalytic domain. This assay monitors the increase of 620 nm fluorescence that resulted from BACE1 cleavage of an APPswedish APP^swe mutant peptide FRET substrate (QSY7-[…]-Europium-amide). This substrate contains an N-terminal QSY7 moiety that serves as a quencher of the C-terminal Europium fluorophore (620 nm Em). […] Inhibition of BACE1 cleavage of the QSY7-APP^swe-Eu substrate by inhibitors is manifested as a suppression of 620 nm fluorescence.
Reactions are initiated by addition of 10 μl of 600 nM QSY7-APP^swe-Eu substrate (200 nM final) to give a final reaction volume of 30 μl in a 384 well Nunc HTRF plate. The reactions are incubated at 30° C. for 1.5 hours. The 620 nm fluorescence is then read on a Rubystar HTRF plate reader (BMG Labtechnologies) using a 50 millisecond delay followed by a 400 millisecond acquisition time window. Inhibitor IC50 values are derived from non-linear regression analysis of concentration response curves.

[2] = biological target: purified human autoBACE-2 (Homo sapiens (Human), UniProt Q9Y5Z0); assay: BACE-2 Assay (BACE-HTRF assay); assay type: biochemical; conditions: Ki calculated from IC50 using the Cheng-Prusoff equation; QSY7-EISEVNLDAEFC-Eu-amide substrate, pH 5.0; read-out: BACE2 Ki
Protocol: Inhibitor IC50s at purified human autoBACE-2 are determined in a time-resolved endpoint proteolysis assay that measures hydrolysis of the QSY7-EISEVNLDAEFC-Eu-amide FRET peptide substrate (BACE-HTRF assay). BACE-mediated hydrolysis of this peptide results in an increase in relative fluorescence (RFU) at 620 nm after excitation with 320 nm light. Inhibitor compounds, prepared at 3× the desired final concentration in 1×BACE assay buffer (20 mM sodium acetate pH 5.0, 10% glycerol, 0.1% Brij-35) supplemented with 7.5% DMSO are pre-incubated with an equal volume of autoBACE-2 enzyme diluted in 1×BACE assay buffer (final enzyme concentration 1 nM) in black 384-well NUNC plates for 30 minutes at 30° C. The assay is initiated by addition of an equal volume of the QSY7-EISEVNLDAEFC-Eu-amide substrate (200 nM final concentration, Km=8 μM […] for autoBACE-2) prepared in 1×BACE assay buffer supplemented with 7.5% DMSO and incubated for 90 minutes at 30° C. DMSO is present at 5% final concentration in the assay. Following laser excitation of sample wells at 320 nm, the fluorescence signal at 620 nm is collected for 400 ms following a 50 μs delay on a RUBYstar HTRF plate reader (BMG Labtechnologies). Raw RFU data is normalized to maximum (1.0 nM BACE/DMSO) and minimum (no enzyme/DMSO) RFU values. IC50s are determined by nonlinear regression analysis (sigmoidal dose response, variable slope) of percent inhibition data with minimum and maximum values set to 0 and 100 percent respectively. Similar IC50s are obtained when using raw RFU data. The Ki values are calculated from the IC50 using the Cheng-Prusoff equation.

Chain of purified human autoBACE-2 (Q9Y5Z0 63-473): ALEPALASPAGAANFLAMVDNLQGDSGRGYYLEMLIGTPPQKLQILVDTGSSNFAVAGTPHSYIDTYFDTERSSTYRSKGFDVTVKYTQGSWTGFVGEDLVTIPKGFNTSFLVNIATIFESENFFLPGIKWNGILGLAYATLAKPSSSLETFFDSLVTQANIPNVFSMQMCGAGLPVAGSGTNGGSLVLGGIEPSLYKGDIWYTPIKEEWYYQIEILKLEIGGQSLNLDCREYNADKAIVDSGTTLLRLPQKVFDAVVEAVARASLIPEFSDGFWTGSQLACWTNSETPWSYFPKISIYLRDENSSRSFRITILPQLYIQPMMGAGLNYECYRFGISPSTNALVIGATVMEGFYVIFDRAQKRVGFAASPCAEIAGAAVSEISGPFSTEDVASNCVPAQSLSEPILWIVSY
Chain of soluble human BACE1 catalytic domain (P56817 75-416): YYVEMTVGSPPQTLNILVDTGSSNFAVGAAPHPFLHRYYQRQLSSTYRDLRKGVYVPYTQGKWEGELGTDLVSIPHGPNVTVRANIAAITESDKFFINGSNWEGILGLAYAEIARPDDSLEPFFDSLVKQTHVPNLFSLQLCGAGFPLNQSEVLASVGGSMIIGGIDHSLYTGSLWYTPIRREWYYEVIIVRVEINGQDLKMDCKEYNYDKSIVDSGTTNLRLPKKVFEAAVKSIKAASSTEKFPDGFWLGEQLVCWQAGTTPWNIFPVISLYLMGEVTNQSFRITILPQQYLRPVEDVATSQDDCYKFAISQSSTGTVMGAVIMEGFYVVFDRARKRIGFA

CN1CC2(C1)C(=N)N[C@](C)(c1cc(NC(=O)c3ccc(OC(F)(F)F)cn3)ccc1F)CS2(=O)=O [Example 6, N-{4-fluoro-3-[(7R)-9-imino-2,7-dimethyl-5,5-dioxido-5-thia-2,8-diazaspiro[3.5]non-7-yl]phenyl}-5-(trifluoromethoxy) pyridine-2-carboxamide]
Ki [1]: 3.3 nM | Ki [2]: 10.3 nM

CN1CC2(C1)C(=N)N[C@](C)(c1cc(NC(=O)c3ncc(C#N)cc3C3CC3)ccc1F)CS2(=O)=O [Example 12a, 5-cyano-3-cyclopropyl-N-{4-fluoro-3-[(7R)-9-imino-2,7-dimethyl-5,5-dioxido-5-thia-2,8-diazaspiro [3.5]non-7-yl]phenyl}pyridine-2-carboxamide]
Ki [1]: 1.3 nM | Ki [2]: 0.8 nM

COc1ccc(C(=O)Nc2ccc(F)c([C@]3(C)CS(=O)(=O)C4(CNC4)C(=N)N3)c2)nc1 [Example 36d, (R)—N-(4-fluoro-3-(9-imino-7-methyl-5,5-dioxido-5-thia-2,8-diazaspiro[3.5]nonan-7-yl)phenyl)-5-methoxypicolinamide]
Ki [1]: 22 nM | Ki [2]: 16 nM

COc1cnc(C(=O)Nc2ccc(F)c([C@]3(C)CS(=O)(=O)C4(CCN(C)CC4)C(=N)N3)c2)cn1 [Example 28, N-{4-fluoro-3-[(3R)-5-imino-3,9-dimethyl-1,1-dioxido-1-thia-4,9-diazaspiro[5.5]undec-3-yl]phenyl}-5-methoxypyrazine-2-carboxamide]
Ki [1]: 19 nM | Ki [2]: 29 nM

COc1ccc(C(=O)Nc2ccc(F)c([C@]3(C)CS(=O)(=O)C4(CCN(C)CC4)C(=N)N3)c2)nc1 [Example 27, N-{4-fluoro-3-[(3R)-5-imino-3,9-dimethyl-1,1-dioxido-1-thia-4,9-diazaspiro[5.5]undec-3-yl]phenyl}-5-methoxypyridine-2-carboxamide]
Ki [1]: 35 nM | Ki [2]: 24 nM

CN1CC2(C1)C(=N)N[C@](C)(c1cc(NC(=O)c3ccc(OC(F)F)cn3)ccc1F)CS2(=O)=O [Example 7, 5-(difluoromethoxy)-N-{4-fluoro-3-[(7R)-9-imino-2,7-dimethyl-5,5-dioxido-5-thia-2,8-diazaspiro[3.5]non-7-yl]phenyl}pyridine-2-carboxamide]
Ki [1]: 2.7 nM | Ki [2]: 4.3 nM

CNC(=O)N1CC2(C1)C(=N)N[C@](C)(c1cc(NC(=O)c3ccc(OC)cn3)ccc1F)CS2(=O)=O [Example 39, (R)-7-(2-fluoro-5-(5-methoxypicolinamido)phenyl)-9-imino-N,7-dimethyl-5-thia-2,8-diazaspiro[3.5]nonane-2-carboxamide 5,5-dioxide]
Ki [1]: 7.3 nM | Ki [2]: 1.7 nM

COc1cnc(C(=O)Nc2ccc(F)c([C@]3(C)CS(=O)(=O)C4(CN(C)C4)C(=N)N3)c2)cn1 [Example 4, N-{4-fluoro-3-[(7R)-9-imino-2,7-dimethyl-5,5-dioxido-5-thia-2,8-diazaspiro[3.5]non-7-yl]phenyl}-5-methoxypyrazine-2-carboxamide]
Ki [1]: 7.9 nM | Ki [2]: 6.2 nM

CN1CC2(C1)C(=N)N[C@](C)(c1cc(NC(=O)c3ccc(F)cn3)ccc1F)CS2(=O)=O [Example 2, 5-fluoro-N-{4-fluoro-3-[(7R)-9-imino-2,7-dimethyl-5,5-dioxido-5-thia-2,8-diazaspiro[3.5]non-7-yl]phenyl}pyridine-2-carboxamide]
Ki [1]: 6.1 nM | Ki [2]: 1.2 nM

CN1CC2(C1)C(=N)N[C@](C)(c1cc(NC(=O)c3ccc(Cl)cn3)ccc1F)CS2(=O)=O [Example 5, 5-chloro-N-{4-fluoro-3-[(7R)-9-imino-2,7-dimethyl-5,5-dioxido-5-thia-2,8-diazaspiro [3.5]non-7-yl]phenyl}pyridine-2-carboxamide]
Ki [1]: 2.2 nM | Ki [2]: 0.4 nM

COc1ccc(C(=O)Nc2ccc(F)c([C@]3(C)CS(=O)(=O)C4(CN(C)C4)C(=N)N3)c2)nc1 [Example 3, N-{4-fluoro-3-[(7R)-9-imino-2,7-dimethyl-5,5-dioxido-5-thia-2,8-diazaspiro[3.5]non-7-yl]phenyl}-5-methoxypyridine-2-carboxamide]
Ki [1]: 6.3 nM | Ki [2]: 1.6 nM

COc1ccc(C(=O)Nc2ccc(F)c([C@]3(C)CS(=O)(=O)C4(CN(Cc5ccccc5)C4)C(=N)N3)c2)nc1 [Example 40, (R)—N-(3-(2-benzyl-9-imino-7-methyl-5,5-dioxido-5-thia-2,8-diazaspiro[3.5]nonan-7-yl)-4-fluorophenyl)-5-methoxypicolinamide]
Ki [1]: 7.7 nM | Ki [2]: 0.6 nM

CN1CC2(C1)C(=N)N[C@](C)(c1cc(NC(=O)c3ccc(C#N)cn3)ccc1F)CS2(=O)=O [Example 1, (R)-5-cyano-N-(4-fluoro-3-(9-imino-2,7-dimethyl-5,5-dioxido-5-thia-2,8-diazaspiro[3.5]nonan-7-yl)phenyl)picolinamide]
Ki [1]: 1.7 nM | Ki [2]: 1.4 nM

CN1CCC2(CC1)C(=N)N[C@](C)(c1cc(NC(=O)c3ccc(OC(F)(F)F)cn3)ccc1F)CS2(=O)=O [Example 30]
Ki [1]: 15 nM | Ki [2]: 52 nM

CC#CCOc1ccc(C(=O)Nc2ccc(F)c([C@]3(C)CS(=O)(=O)C4(CN(C)C4)C(=N)N3)c2)nc1 [Example 12, 5-(but-2-yn-1-yloxy)-N-{4-fluoro-3-[(7R)-9-imino-2,7-dimethyl-5,5-dioxido-5-thia-2,8-diazaspiro[3.5]non-7-yl]phenyl}pyridine-2-carboxamide]
Ki [1]: 2.3 nM | Ki [2]: 30 nM

COc1cnc(C(=O)Nc2ccc(F)c([C@]3(C)CS(=O)(=O)C4(CN(C)C4)C(=N)N3)c2)c(C)n1 [Example 10, N-{4-fluoro-3-[(7R)-9-imino-2,7-dimethyl-5,5-dioxido-5-thia-2,8-diazaspiro[3.5]non-7-yl]phenyl}-5-methoxy-3-methylpyrazine-2-carboxamide]
Ki [1]: 10.4 nM | Ki [2]: 4.9 nM

CN1CC2(C1)C(=N)N[C@](C)(c1cc(NC(=O)c3ccc(OCF)cn3)ccc1F)CS2(=O)=O [Example 8, N-{4-fluoro-3-[(7R)-9-imino-2,7-dimethyl-5,5-dioxido-5-thia-2,8-diazaspiro[3.5]non-7-yl]phenyl}-5-(fluoromethoxy) pyridine-2-carboxamide]
Ki [1]: 4.9 nM | Ki [2]: 1.5 nM

C[C@@]1(c2cc(NC(=O)c3ccc(C#N)cn3)ccc2F)CS(=O)(=O)C2(CNC2)C(=N)N1 [Example 36c, (R)-5-cyano-N-(4-fluoro-3-(9-imino-7-methyl-5,5-dioxido-5-thia-2,8-diazaspiro[3.5]nonan-7-yl)phenyl)picolinamide]
Ki [1]: 3.7 nM | Ki [2]: 2.6 nM

CN1CCC2(CC1)C(=N)N[C@](C)(c1cc(NC(=O)c3ccc(C#N)cn3)ccc1F)CS2(=O)=O [Example 25, 5-cyano-N-{4-fluoro-3-[(3R)-5-imino-3,9-dimethyl-1,1-dioxido-1-thia-4,9-diazaspiro[5.5]undec-3-yl]phenyl}pyridine-2-carboxamide]
Ki [1]: 6.4 nM | Ki [2]: 8.4 nM

COCC(=O)Nc1ccc(F)c([C@]2(C)CS(=O)(=O)C3(CCN(C)CC3)C(=N)N2)c1 [Example 36b, N-{4-fluoro-3-[(3R)-5-imino-3,9-dimethyl-1,1-dioxido-1-thia-4,9-diazaspiro[5.5]undec-3-yl]phenyl}-2-methoxyacetamide]
Ki [1]: 548 nM | Ki [2]: 56 nM

CC#CCOc1ccc(C(=O)Nc2ccc(F)c([C@]3(C)CS(=O)(=O)C4(CCN(C)CC4)C(=N)N3)c2)nc1 [Example 36, 5-(but-2-yn-1-yloxy)-N-{4-fluoro-3-[(3R)-5-imino-3,9-dimethyl-1,1-dioxido-1-thia-4,9-diazaspiro[5.5]undec-3-yl]phenyl}pyridine-2-carboxamide]
Ki [1]: 2.3 nM | Ki [2]: 30 nM

Cc1cc(C#N)cnc1C(=O)Nc1ccc(F)c([C@]2(C)CS(=O)(=O)C3(CCN(C)CC3)C(=N)N2)c1 [Example 35, 5-cyano-N-{4-fluoro-3-[(3R)-5-imino-3,9-dimethyl-1,1-dioxido-1-thia-4,9-diazaspiro[5.5]undec-3-yl]phenyl}-3-methylpyridine-2-carboxamide]
Ki [1]: 35 nM | Ki [2]: 24 nM

Source: patent publication US9453034B2, “C2-azaspiro iminothiazine dioxides as BACE inhibitors, compositions, and their use” (Merck Sharp & Dohme Corp., priority 2013, dated 2016)
